This note sets out measurements from patent US20240245694A1, “Tricyclic Compounds and their Uses” (Novartis AG, priority 2022, published 2024).

The nature of the data set: Storage stability of the solid at RT. Format: physicochemical. Particulars: stored at RT under ambient atmosphere for several months; degradation product Example 25. The source says:
2.60 g (3.51 mmol) of Example 21A (7R,9R)—N-(2-chloro-4-(trifluoromethyl)phenyl)-2-(3,6-dihydro-2H-pyran-4-yl)-6-((1S,6S)-5-(5-hydroxy-6-methylpyrimidine-4-carbonyl)-2,5-diazabicyclo[4.2.0]octan-2-yl)-7-methyl-5-oxo-5,7,8,9-tetrahydropyrrolo[1,2-c][1,2,4]triazolo[1,5-a]pyrimidine-9-carboxamide was stored at RT under ambient atmosphere for several months, by which the purity decreased to 86%. The degradation product title compound Example 25 was isolated by column chromatography (RediSep Column: Silica 80 g, eluent DCM:MeOH 100:0 to 90:10). The product containing fractions were combined and concentrated under reduced pressure to give a yellow foam. This foam was further purified by chiral SFC (instrument: Waters Prep SFC100-MS; column: Chiralpak IB-N 250 mm×30 mm 5 μm; eluent: A: 55% MeOH+0.1% NH3, B: 45% scCO2; flow rate: 78.0 mL/min; detection: DAD; injection volume: 1.1 mL; gradient: isocratic A: 55%, B: 45%).

With `Cc1ncnc(C(=O)N2CCN(c3c4n(c5nc(C6=CCOCC6)nn5c3=O)[C@@H](C(=O)Nc3ccc(C(F)(F)F)cc3Cl)C[C@H]4C)[C@H]3CC[C@@H]32)c1O` [Example 21A, (7R,9R)—N-(2-chloro-4-(trifluoromethyl)phenyl)-2-(3,6-dihydro-2H-pyran-4-yl)-6-((1S,6S)-5-(5-hydroxy-6-methylpyrimidine-4-carbonyl)-2,5-diazabicyclo[4.2.0]octan-2-yl)-7-methyl-5-oxo-5,7,8,9-tetrahydropyrrolo[1,2-c][1,2,4]triazolo[1,5-a]pyrimidine-9-carboxamide], the purity after storage came to 86%.
